Measured values reported in patent US10647677B2, “Analogues of hydroxychloroquine (HCQ) without retinal toxicity” (Inoviem Scientific, priority 2015, dated 2020).
Values belong to the molecule of their own block, whether it stands above or below them.

Experiments:
Type in all cases: in vivo
[1] = tested on: C57Bl/6 mice, pulmonary vasculitis induced by immune complexes; experiment: Pulmonary vasculitis induced by immune complexes: neutrophils in bronchoalveolar lavages (flow cytometry); settings: HCQ 10 mg/kg, CB137 10, 30 and 100 mg/kg, 4 hours after instillation, compared to control + (FIG. 5)
Method: Female C57Bl/6 strain mice from the Jackson Laboratory, 8-10 weeks old and weighing about 20 g, are used in all experiments. The mice are maintained at a temperature of 23° C.±1° C. with 12-hour light/dark cycle. Mice have access to water and food ad libitum and are housed at least one week before the beginning of any experiments.
A retro-orbital blood sampling was performed using capillaries containing heparin on mice anesthetized with isoflurane the day before the manipulation. The next day, the mice were anesthetized with a mixture of ketamine and xylasin (90 mg/kg and 125 mg/kg, respectively). The immune IgG complex is induced in the lungs by intratracheal instillation of 0.5 mg of anti-BSA rabbit antibody (MP Biomedicals, Strasbourg, France) and by the administration of 0.5 mg per mouse of BSA antigen in the caudal vein (Warner et al., 2001 and Warren et al., 1989). The specified treatment (PF-1355, CB137 or solvent alone) is administered enterally. The animals are euthanized 4 hours after intratracheal instillation.
The animals are euthanized 4 hours after the intratracheal instillation by a lethal injection of pentobarbital. A submandibular blood sample is taken. […] The total number of cells, excluding any residual red cells and dead cells stained with trypan blue, is determined under the light microscope on a Malassez cell. […]

retina of mice = experiment: Determination of retinopathy: histological analysis of the retina; settings: HCQ 10 mg/kg or CB137 5, 10 and 15 mg/kg, 5 times weekly for 62 days (FIGS. 3 and 4)
Method: Histology: 7-week-old mice are injected with 10 mg/kg HCQ or 5, 10 and 15 mg/kg of the CB137 analog 5 times weekly for a period of 62 days. After assigning them a number, the mice are randomized according to their weight and treatment. The mice are divided in groups of 5 in cages, one mouse being treated with the carrier, one with HCQ 10 mg/kg, one with CB137 5 mg/kg, one with CB137 10 mg/kg and one with CB137 15 mg/Kg. The mice are housed in an environment maintained at a temperature of 22° C., 35-55% humidity and with 12-hour cycles of light/darkness.
At the end of the experiment, the mice are euthanized by cervical dislocation. The eyeballs are isolated and stored in a solution containing 4% paraformaldehyde, 5% glutaraldehyde and 0.1 M sodium cacodylate overnight at 4° C. The samples are washed, dehydrated and embedded in paraffin. The 4-μm retinal sections are stained with 1% toluidine blue followed by 1% methylene blue. The retinal toxicity of the samples is then determined by analysis of the sections under microscope.

[2] = tested on: MRL/Ipr mice (lupus model); experiment: Survival of MRL/Ipr mice (lupus model); settings: 10 mg/kg IP, compared with HCQ at the same dose (FIG. 1)
Method: (§1) The MRL/MPJ-Fas (Ipr) (MRL-Ipr) and C57Bl/6 mice for the behavioral experiments are from the Jackson Laboratory and are randomly distributed into 5 groups. All animals were kept at controlled temperature (23° C.+/−1° C.) with a 12-hour day/night cycle, water and ad libitum food.
(§2) Mice received the specified dose of hydroxychloroquine (Tokyo Chemical Industry), CB137 or carrier intraperitoneally (IP), every 24 hours and for 5 days over a 10-week period. With regard to the MRL/Ipr mice, treatment started at 7 weeks of age, and ended at 23 weeks of age where a significant proportion of untreated mice died. With regard to the C57B1/6 mice, the same treatment program was carried out and the mice were sacrificed after […]. HCQ and CB137 were each freshly prepared in physiological saline and injected into the mice in a final volume of 50 μL. The MRL/Ipr mice were examined daily for skin lesions. For histological analysis, the animals were sacrificed and the tissues were rapidly dissected and immediately post-fixed.

[3] = tested on: MRL/Ipr mice (lupus model); experiment: Development of the disease: dermatitis in MRL/Ipr mice; settings: 10 mg/kg, compared to carrier and HCQ 10 mg/kg (FIG. 2)
Method: as §1, §2
Dermatitis was less common in mice treated with CB137 10 mg/kg compared to control (carrier) mice and HCQ treated mice (10 mg/kg (FIG. 2).

retinal lesions (histology) (retina of mice): induces retinal lesions
Compound: CCN(CCO)CCCC(C)Nc1ccnc2cc(Cl)ccc12 (stereo not drawn) [Commercial HCQ, hydroxychloroquine]
amount of neutrophils in bronchoalveolar lavages / lungs [1]: slightly increase the amount of neutrophils

Compound: CCN(CCO)CCCC(C)Nc1c(Cl)cnc2cc(Cl)ccc12 (stereo not drawn) [CB137]
amount of neutrophils in bronchoalveolar lavages / lungs [1]: decreases the amount of neutrophils
retinal lesions (histology) (retina of mice): does not induce more lesions than in the control mice
survival rate [2]: significantly higher survival rate
dermatitis (rate of mice having dermatitis) [3]: less common
